# Results as given in US11903907B2, “Soluble honokiol derivatives” (TAIPEI MEDICAL UNIVERSITY, priority 2017, dated 2024).
# Experiments:
# [1] = system: middle cerebral artery occlusion (MCAO) embolic stroke; test: MCAO embolic stroke in mice: infarct volume and brain edema from TTC-stained brain sections; format: in vivo
# Protocol: (§1) Coronal sections of 2,3,5-triphenyltetrazolium chloride (TTC)-stained brains were taken after middle cerebral artery occlusion (MCAO) in the vehicle group treated with an isovolumetric solvent (normal saline, intravenous [i.v.]), and groups treated with HP-TMU (0.25, 0.5 and 1 mg/kg, i.v.) or honokiol (0.129, 0.258 and 0.516 mg/kg, i.v.; the doses of honokiol were adjusted by the ratio of the molecular weight of honokiol to HP-TMU (266.33/514.22)) after 30 min-embolic occlusion. The densitometric analyses for the measurement of infarct volume and brain edema were performed after treatment with HP-TMU or honokiol against embolic stroke in mice. Bleeding time was measured 10 min after the i.v. administration of normal saline (isovolumetric control) or HP-TMU (0.5 and 1 mg/kg, i.v.) for 30 min.
# (§2) In addition, MCAO-induced cerebral edema in the ischemic hemisphere was reduced by the treatment of 1 mg/kg HP-TMU (FIG. 1C). […] On the other hand, increased risk of hemorrhage is a major side effect of anti-stroke treatments. To evaluate HP-TMU in this aspect, we used the mouse tail transection model as an index of hemostasis.
# [2] = system: mouse tail transection model (hemostasis); test: Bleeding time, mouse tail transection model; format: in vivo, mice; conditions: 0.5 and 1 mg/kg i.v.; measured 10 min after administration
# Protocol: as §1, §2
# [3] = system: middle cerebral artery occlusion (MCAO); test: Neurobehavioral functions after MCAO: neurological severity scoring and rotarod test; format: in vivo, mice; conditions: 0.5 and 1 mg/kg i.v., 24 and 48 h after MCAO, P<0.05
# Protocol: Mice were subjected to middle cerebral artery occlusion (MCAO) surgery for 30 min, and then treated with the isovolumetric vehicle control (normal saline, intravenous [i.v.]) or HP-TMU (0.25, 0.5 and 1 mg/kg, i.v.) or honokiol (0.129, 0.258 and 0.516 mg/kg, i.v.). Assays of neurobehavioral functions include neurological severity scoring and the rotarod test. Evaluations were performed before and 24 and 48 h after surgery.
# [4] = system: middle cerebral artery occlusion (MCAO); test: Long-term recovery after MCAO by neurological severity scoring, comparison with edaravone; format: in vivo, mice; conditions: 1 mg/kg i.v.; at 1, 2, and 7 days after surgery
# Protocol: Mice were subjected to middle cerebral artery occlusion (MCAO) surgery for 30 min, and then treated with the isovolumetric vehicle control (normal saline, intravenous [i.v.]) or HP-TMU (1 mg/kg, i.v.) or edaravone (3 mg/kg, i.v.). The therapeutic effects of HP-TMU on long-term recovery were evaluated by neurological severity scoring before or 1, 2, 7, 14, and 28 days after surgery.
# [5] = Plasma concentration of honokiol and pharmacokinetics after intravenous injection in rats; conditions: rat plasma, i.v.
# Protocol: Mean plasma concentrations of honokiol vs. time profile in five rats were measured after intravenous injection of HP-TMU or honokiol.
# The plasma concentrations of honokiol at different points are expressed as mean±SD, and the mean concentration-time curve is shown in FIG. 4A.
structure (smiles),measurement,setting,value
"C=CCc1ccc(OP(=O)(O)O)c(-c2ccc(OP(=O)([O-])[O-])c(CC=C)c2)c1.[Na+].[Na+] [HP-TMU, sodium 3′,5-diallyl-[1,1′-biphenyl]-2,4′-diyl bis(phosphate)]",MCAO-induced cerebral edema in the ischemic hemisphere,[1]; 1 mg/kg i.v.,reduced
same,infarct volume,"[1]; 0.5 and 1 mg/kg i.v. after 30 min-embolic occlusion, compared with solvent control group, P<0.05",significantly reduced the infarct volume
same,neuroprotective effects compared with honokiol,"[1]; HP-TMU 0.25, 0.5, 1 mg/kg i.v. vs honokiol 0.129, 0.258, 0.516 mg/kg i.v.",more potent neuroprotective effects than honokiol
same,bleeding time,[2],did not alter the bleeding time substantially
same,"neurobehavioral (neurological) deficit scores, 18-point scale",[3],significantly ameliorated these increased scores
same,decrease of rotarod duration,[3]; vs vehicle control,significant reversed
same,long-term recovery of neurological deficit,[4],significantly improved
same,half-life compared to honokiol,[5],prolonged half-life compared to honokiol
